In patent US10023602B2, “Hamamelitannin analogues and uses thereof” (Universiteit Gent, priority 2014, dated 2018):

Tests used:
[1] = test system: methicillin resistant S. aureus Mu50 strain (S. aureus ATCC700699) biofilm; test: Biofilm susceptibility to vancomycin, pre-treatment regimen (biofilm formed in presence of compound, then vancomycin); type: cell-based; conditions: for Pretreat (100 μM): percentage Colony Forming Units (CFU's) per biofilm: compound 100 μM during biofilm formation; for Pretreat (100 μM): percentage Colony Forming Units (CFU's) per biofilm / Pretreat. (25 μM): percentage Colony Forming Units (CFU's) per biofilm: then VAN 20 μg/ml, compared to the untreated (negative) control; for EC50: concentration needed to get 50% killing compared to antibiotic alone (VAN 20 μg/ml) and complete killing, read-out: Pretreat. (EC50); for Pretreat. (25 μM): percentage Colony Forming Units (CFU's) per biofilm: compound 25 μM during biofilm formation
Description: (§1) The compounds were evaluated for their effect on biofilm susceptibility both under pre-treatment and combination treatment regimens. In the pre-treatment regimen, a methicillin resistant S. aureus Mu50 strain (S. aureus ATCC700699) was allowed to form biofilms in the presence of the compounds after which the biofilm was treated with vancomycin (20 μg/ml). In the combination treatment regimen, S. aureus Mu50 was allowed to form a mature biofilm after which it was treated with a combination of a compound and vancomycin. In brief, 100 μl of a standardized inoculum (10^8 CFU/ml) was placed in the wells of a round-bottom 96-well microtiter plate. The cells were allowed to adhere to the plate in the absence (combined treatment) or presence (pre-treatment) of the compounds (0.1-250 μM) for 4 h at 37° C. After this adhesion step, non-adhered cells were removed, the wells were rinsed and fresh medium with or without the compounds was added. The plates were incubated for an additional 20 h at 37° C. After this, the medium was removed, biofilms were rinsed with physiological saline and vancomycin (20 μg/ml) was added alone (pre-treatment) or with the compounds (combined treatment, 0.1-250 μM). Plates were placed at 37° C. for 24 h after which medium was removed, wells were rinsed and the surviving cells in each condition were collected. The number of surviving cells under each condition was compared to vancomycin treatment alone and was assessed by conventional plating. The REF compound (hamamelitannin) was also observed for its effect on biofilm susceptibility towards other antibiotics (incl. vancomycin, cefoxitin, tobramycin, cefazolin, cefalonium, daptomycin, linezolide and cephalexin). Biofilms were formed as described above and were treated with the antibiotics alone or in combination with the REF compound (250 μM). The number of surviving cells under each condition was compared to the untreated control biofilm and was assessed by conventional plating.

[2] = test system: methicillin resistant S. aureus Mu50 strain (S. aureus ATCC700699) biofilm; test: Biofilm susceptibility to vancomycin, combination treatment regimen (mature biofilm treated with compound plus vancomycin); type: cell-based; conditions: for Combin. (100 μM): percentage Colony Forming Units (CFU's) per biofilm: compound 100 μM together with VAN 20 μg/ml on mature biofilm; for Combin. (100 μM): percentage Colony Forming Units (CFU's) per biofilm / Combin. (25 μM): percentage Colony Forming Units (CFU's) per biofilm: compared to the untreated (negative) control; for EC50: concentration needed to get 50% killing compared to antibiotic alone (VAN 20 μg/ml) and complete killing, read-out: Combin. (EC50); for Combin. (25 μM): percentage Colony Forming Units (CFU's) per biofilm: compound 25 μM together with VAN 20 μg/ml on mature biofilm
Description: as §1

SMILES | Pretreat (100 μM): percentage Colony Forming Units (CFU's) per biofilm [1] | Combin. (100 μM): percentage Colony Forming Units (CFU's) per biofilm [2] | EC50 [1] | EC50 [2] | Pretreat. (25 μM): percentage Colony Forming Units (CFU's) per biofilm [1] | Combin. (25 μM): percentage Colony Forming Units (CFU's) per biofilm [2]
Cn1c(C(=O)NC[C@H]2OC[C@@](O)(CNC(=O)c3ccccc3)[C@@H]2O)cc2ccccc21 [compound 186, N-(((2R,3R,4S)-4-(benzamidomethyl)-3,4-dihydroxytetrahydrofuran-2-yl)methyl)-1-methyl-1H-indole-2-carboxamide] | 41.45 percentage | 42.75 percentage | – | – | – | –
CS(=O)(=O)NC[C@H]1OC[C@@](O)(CNC(=O)c2ccccc2)[C@@H]1O [compound 211, N-(((3S,4R,5R)-3,4-dihydroxy-5-(methylsulfonamidomethyl)tetrahydrofuran-3-yl)methyl)benzamide] | 31.02 percentage | 38.03 percentage | – | – | – | –
Cn1cncc1C(=O)NC[C@H]1OC[C@@](O)(CNC(=O)c2ccccc2)[C@@H]1O [compound 210, N-(((2R,3R,4S)-4-(benzamidomethyl)-3,4-dihydroxytetrahydrofuran-2-yl)methyl)-1-methyl-1H-imidazole-5-carboxamide] | 22.10 percentage | 26.95 percentage | 52.3 µM | 58.2 µM | – | –
O=C(NC[C@H]1OC[C@@](O)(CNC(=O)c2ccccc2)[C@@H]1O)c1ccc(F)cc1 [compound 152, N-(((2R,3R,4S)-4-(benzamidomethyl)-3,4-dihydroxytetrahydrofuran-2-yl)methyl)-4-fluorobenzamide] | 15.07 percentage | 14.05 percentage | – | – | – | –
Cc1ccc(C(=O)NC[C@]2(O)CO[C@H](CNC(=O)c3ccccc3Cl)[C@H]2O)cc1 [compound 232, 2-chloro-N-(((2R,3R,4S)-3,4-dihydroxy-4-((4-methylbenzamido)methyl)tetrahydrofuran-2-yl)methyl)benzamide] | – | – | 79.7 µM | 41.9 µM | 52.41 percentage | 42.16 percentage
O=C(NC[C@]1(O)CO[C@H](CNC(=O)c2ccccc2Cl)[C@H]1O)c1cccnc1 [compound 243, N-(((3S,4R,5R)-5-((2-chlorobenzamido)methyl)-3,4-dihydroxytetrahydrofuran-3-yl)methyl)nicotinamide] | – | – | – | – | 85.00 percentage | 51.83 percentage
O=C(NC[C@H]1OC[C@@](O)(CNC(=O)c2ccnnc2)[C@@H]1O)c1ccnnc1 [compound 257, N,N′-(((2R,3R,4S)-3,4-dihydroxytetrahydrofuran-2,4-diyl)bis(methylene))bis(pyridazine-4-carboxamide)] | 1.71 percentage | 17.13 percentage | 7.13 µM | 18 µM | – | –
CN(C[C@]1(O)CO[C@H](CNC(=O)c2ccccc2)[C@H]1O)C(=O)c1ccccc1 [compound 229, N-(((3S,4R,5R)-5-(benzamidomethyl)-3,4-dihydroxytetrahydrofuran-3-yl)methyl)-N-methylbenzamide] | 7.17 percentage | 11.15 percentage | 5.82 µM | 8.92 µM | – | –
O=C(NC[C@H]1OC[C@@](O)(CNC(=O)c2ccccc2Cl)[C@@H]1O)c1ccccc1Cl [compound 249, N,N′-(((2R,3R,4S)-3,4-dihydroxytetrahydrofuran-2,4-diyl)bis(methylene))bis(2-chlorobenzamide)] | 6.67 percentage | 13.59 percentage | 5.36 µM | 28.4 µM | – | –
O=C(NC[C@]1(O)CO[C@H](CNC(=O)c2ccccc2Cl)[C@H]1O)c1ccccc1 [compound 171, N-(((2R,3R,4S)-4-(benzamidomethyl)-3,4-dihydroxytetrahydrofuran-2-yl)methyl)-2-chlorobenzamide] | 11.56 percentage | 7.776 percentage | 0.389 µM | 7.98 µM | – | –
O=C(NC[C@]1(O)CO[C@H](CNC(=O)c2ccccc2C(F)(F)F)[C@H]1O)c1ccccc1 [compound 175, N-(((2R,3R,4S)-4-(benzamidomethyl)-3,4-dihydroxytetrahydrofuran-2-yl)methyl)-2-(trifluoromethyl)benzamide] | 22.48 percentage | 34.85 percentage | – | – | – | –
O=C(NC[C@]1(O)CO[C@H](CNS(=O)(=O)c2ccc(Cl)cc2)[C@H]1O)c1ccccc1 [compound 217, N-(((3S,4R,5R)-5-(((4-chlorophenyl)sulfonamido)methyl)-3,4-dihydroxytetrahydrofuran-3-yl)methyl)benzamide] | 14.04 percentage | 14.85 percentage | 23.5 µM | 27.8 µM | – | –
CC(C)S(=O)(=O)NC[C@H]1OC[C@@](O)(CNC(=O)c2ccccc2)[C@@H]1O [compound 213, N-(((3S,4R,5R)-3,4-dihydroxy-5-(((1-methylethyl)sulfonamido)methyl)tetrahydrofuran-3-yl)methyl)benzamide] | 28.32 percentage | 32.67 percentage | – | – | – | –
O=C(NC[C@H]1OC[C@@](O)(CNC(=O)c2ccccc2)[C@@H]1O)c1cccnc1 [compound 167, N-(((2R,3R,4S)-4-(benzamidomethyl)-3,4-dihydroxytetrahydrofuran-2-yl)methyl)nicotinamide] | 9.813 percentage | 15.22 percentage | – | – | – | –
O=C(NC[C@H]1OC(O)[C@@](O)(CNC(=O)c2cc(O)c(O)c(O)c2)[C@@H]1O)c1cc(O)c(O)c(O)c1 (stereo partly drawn) [compound 15, N,N′-(((2R,3R,4R)-3,4,5-trihydroxytetrahydrofuran-2,4-diyl)bis(methylene))bis(3,4,5-trihydroxybenzamide)] | 22.35 percentage | 57.74 percentage | 63.8 µM | 191 µM | – | –
O=C(NC[C@]1(O)CO[C@H](CNC(=O)c2cnc(Cl)cc2Cl)[C@H]1O)c1ccccc1 [compound 198, N-(((2R,3R,4S)-4-(benzamidomethyl)-3,4-dihydroxytetrahydrofuran-2-yl)methyl)-4,6-dichloronicotinamide] | 19.18 percentage | 11.25 percentage | 10.8 µM | 7.52 µM | – | –
O=C(NC[C@H]1OC[C@@](O)(CNC(=O)c2ccccc2)[C@@H]1O)c1ccc(Cl)c(Cl)c1 [compound 182, N-(((2R,3R,4S)-4-(benzamidomethyl)-3,4-dihydroxytetrahydrofuran-2-yl)methyl)-3,4-dichlorobenzamide] | 42.13 percentage | 33.81 percentage | – | – | – | –
O=C(NC[C@H]1OC[C@@](O)(CNC(=O)c2ccc(-c3ccccc3)cc2)[C@@H]1O)c1ccnnc1 [compound 253, N-(((2R,3R,4S)-4-([1,1′-biphenyl]-4-carboxamidomethyl)-3,4-dihydroxytetrahydrofuran-2-yl)methyl)pyridazine-4-carboxamide] | 4.25 percentage | 22.50 percentage | 8.54 µM | 45.4 µM | – | –
O=C(NC[C@H]1OC[C@@](O)(CNC(=O)c2ccccc2)[C@@H]1O)c1ccnnc1 [compound 207, N-(((2R,3R,4S)-4-(benzamidomethyl)-3,4-dihydroxytetrahydrofuran-2-yl)methyl)pyridazine-4-carboxamide] | 6.950 percentage | 13.70 percentage | 7.28 µM | 8.54 µM | – | –
CN(C[C@H]1OC[C@@](O)(CNC(=O)c2ccccc2)[C@@H]1O)C(=O)c1ccccc1 [compound 261, N-(((2R,3R,4S)-4-(benzamidomethyl)-3,4-dihydroxytetrahydrofuran-2-yl)methyl)-N-methylbenzamide] | 6.09 percentage | 10.02 percentage | 8.5 µM | 24.3 µM | – | –
